Key:
[1] = biological target: CDK4/Cyclin D1 (Homo sapiens (Human), UniProt P11802); experiment: CDK4/CyclinD1 enzymatic activity assay (TR-FRET); format: biochemical; settings: CDK4/CyclinD1 1 nM, ATP 2 mM, read-out: CDK4_D1 IC50
How it was run: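 Insect-cell CDK4/Cyclin D1 (1 nM) with ULight-4E-BP1 (100 nM) and 2 mM ATP in HEPES pH 7.4 buffer, preincubated 20 min with compound (9-dose, 3-fold dilutions); 10 mM MgCl2 started the reaction, run 60 min at 37 °C. EDTA/Eu-anti-phospho-4E-BP1 TR-FRET detection; IC50 from 4-parameter Hill fit.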

[2] = biological target: CDK6/Cyclin D1 (Homo sapiens (Human), UniProt Q00534); experiment: CDK6/CyclinD1 enzymatic activity assay (TR-FRET); format: biochemical; settings: CDK6/Cyclin D1 1 nM, ATP 250 μM, read-out: CDK6_D1 IC50
Chain of CDK6/Cyclin D1 (Q00534 whole entry): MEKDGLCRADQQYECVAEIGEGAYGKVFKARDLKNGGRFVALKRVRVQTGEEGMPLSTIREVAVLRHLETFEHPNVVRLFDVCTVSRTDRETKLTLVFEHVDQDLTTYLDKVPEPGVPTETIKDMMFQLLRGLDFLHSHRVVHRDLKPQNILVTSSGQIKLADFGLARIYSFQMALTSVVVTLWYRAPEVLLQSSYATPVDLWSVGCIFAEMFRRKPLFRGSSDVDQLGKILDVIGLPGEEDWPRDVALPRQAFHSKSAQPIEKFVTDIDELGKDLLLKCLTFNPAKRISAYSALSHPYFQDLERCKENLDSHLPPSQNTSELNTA
Chain of CDK6/Cyclin D1 (P24385 whole entry partner): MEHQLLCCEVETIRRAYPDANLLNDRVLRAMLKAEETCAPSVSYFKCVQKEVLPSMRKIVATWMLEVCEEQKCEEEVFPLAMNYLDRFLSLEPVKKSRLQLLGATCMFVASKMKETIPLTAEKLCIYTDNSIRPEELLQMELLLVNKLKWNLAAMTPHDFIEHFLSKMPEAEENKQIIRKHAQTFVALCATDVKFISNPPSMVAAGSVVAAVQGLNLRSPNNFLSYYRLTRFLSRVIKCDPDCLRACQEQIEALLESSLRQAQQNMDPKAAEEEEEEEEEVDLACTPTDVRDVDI
Description: CDK6/CyclinD1 Enzymatic Activity Assay
The inhibitory activity of compounds was evaluated in vitro using TR-FRET assay with white 384-well low volume microplate (Greiner Bio-One). CDK6/Cyclin D1 catalyzed phosphorylation of peptide in the presence and absence of compounds was measured and used in IC50 determination. Recombinant protein complex CDK6/Cyclin D1, expressed from insect cell, was purchased from ProQinase. Testing compounds were dissolved in DMSO at 0.1 mM and tested in 9-dose IC50 mode. The reaction mixture was prepared by mixing CDK6/Cyclin D1 (1 nM final), ULight-4E-BP1 (100 nM final, Perkinelmer, TRF0128-D), and ATP (250 μM final) in assay buffer (20 mM of HEPES pH 7.4, 1 mM of EGTA, 0.05% BSA, 0.005% Tween 20, and 1 mM TCEP). The compound of interest in DMSO was added to each well in 3-fold serial dilution by dispenser (TECAN D300E). After 20 minutes preincubation at room temperature, 0.1 μL MgCl2 (10 mM final) was added to initiate the reaction. Following a 60 minutes incubation at 37° C., the reaction was stopped by addition of 2 μL of quenching buffer consisting of Lance detection buffer (Perkinelmer CR97-100C), 2 nM LANCE Ultra Europium-anti-P-4E-BP1 (Perkinelmer, TRF0216-D), 10 mM EDTA, and incubate at room temperature for additional 60 minutes in dark. The reaction signal was measured by Envision multimode plate reader (PerkinElmer, 2102-0010). IC50 values were determined by fitting the data to the standard 4 parameters with Hill Slope using GraphPad Prism software.

[3] = system: MCF7 adenocarcinoma cell line; experiment: Cell proliferation studies in MCF7 cells (ATP-Lite); format: cell-based; settings: Homo sapiens, 240 h, 10 days incubation, cell viability by ATP-Lite luminescence, read-out: PROLIFERATION_CTG_MCF7 IC50
How it was run: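 MCF7 cells, seeded at 100 or 200 cells/well, were exposed for 10 days at 37 °C to a 9-point, 3-fold dilution series in quadruplicate, with media exchange and re-dosing on day 5. Viability was read by ATP-Lite luminescence, normalized to background and DMSO, and fitted for IC50.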

[4] = Brain-to-plasma ratio determination in Sprague-Dawley rats; format: in vivo; settings: rat, male Sprague-Dawley rats, four hours after a single oral dose (3, 4, 5, or 10 mg/kg)
Description: Example B: Brain-to-Plasma Ratio Determination in Sprague-Dawley Rats
The brain-to-plasma ratio (Kp) was determined in male Sprague-Dawley rats (7-9 weeks old) four hours after a single oral dose. Rats were acclimated and given free access to standard rodent chow and water throughout the entire study. Test articles were formulated as a solution at 0.3, 0.4, 0.5, or 1.0 mg/mL in a vehicle comprised of 10:15:75 (v:v:v) dimethylacetamide (DMA):Solutol HS15:water and delivered orally at a rate of 10 mL/kg to three rats to achieve final doses of 3, 4, 5, or 10 mg/kg, respectively. At 4 hours post-dose, blood samples were collected via jugular vein cannula into tubes containing K2EDTA as the anticoagulant and stored on ice. Blood samples were then centrifuged at 4° C. at 6000 rpm for 5 minutes, and the resulting plasma was placed into tubes and stored frozen at −80° C. until analysis. Whole brain samples were also collected at 4 hours post-dose. The weight of each brain was measured and recorded, and samples were immediately stored on dry ice. Brain samples were then transferred to storage at −80° C. until analysis.
Prior to analysis, brain samples were combined with water (4 mL/1 gram of brain) and homogenized. Prior to injection, plasma and brain homogenate samples and standards were prepared for analysis by precipitation with acetonitrile or 1:1 (v:v) methanol:acetonitrile. Samples were then thoroughly mixed, centrifuged at 4000 rpm for 15 minutes, and the resulting supernatant was transferred for analysis. Test article concentrations in plasma and brain homogenate were then determined by LC-MS/MS and quantified against calibration standards prepared to known concentrations in matched blank (analyte-free) biological matrix. The Kp was then determined by dividing the dilution-corrected brain concentration by the plasma concentration from each rat. A brain density of 1 gram/mL was assumed for all calculations.

Chain of CDK4/Cyclin D1 (P11802 whole entry): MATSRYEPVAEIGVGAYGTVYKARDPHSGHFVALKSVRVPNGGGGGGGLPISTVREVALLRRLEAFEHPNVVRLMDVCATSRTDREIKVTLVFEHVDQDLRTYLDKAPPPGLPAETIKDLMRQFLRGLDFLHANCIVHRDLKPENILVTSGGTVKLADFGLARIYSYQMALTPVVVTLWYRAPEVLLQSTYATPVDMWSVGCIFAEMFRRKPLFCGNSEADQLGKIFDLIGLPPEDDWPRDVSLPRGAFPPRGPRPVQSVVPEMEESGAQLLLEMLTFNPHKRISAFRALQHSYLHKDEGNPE
Chain of CDK4/Cyclin D1 (P24385 whole entry partner): as the sequence (P24385 whole entry partner) above

Structure (SMILES) | IC50 [1] [nM] | IC50 [2] [nM] | IC50 [3] [nM] | Kp at 4 h [4]
Cc1c(-c2nc(Nc3ccc(C4CCCN(C)C4)cn3)ncc2F)sc2c1C(=O)N(C)C21CC1 (stereo not shown) [Example 15, 2′-(5-Fluoro-2-((5-(1-methylpiperidin-3-yl)pyridin-2-yl)amino)pyrimidin-4-yl)-3′,5′-dimethylspiro[cyclopropane-1,6′-thieno[2,3-c]pyrrol]-4′(5′H)-one] | ≤ 20 | – | 20 to 200 | 1 to 3
CCN1C(=O)c2cc(-c3nc(Nc4ccc(C5CCCN(C)C5)cn4)ncc3C)sc2C12CC2 (stereo not shown) [Example 18, 5′-Ethyl-2′-[5-methyl-2-[[5-(1-methylpiperidin-3-yl)pyridin-2-yl]amino]pyrimidin-4-yl]spiro[cyclopropane-1,6′-thieno[2,3-c]pyrrole]-4′-one] | ≤ 20 | – | 20 to 200 | 1 to 3
CN1CCC(c2ccc(Nc3ncc(F)c(-c4cc5c(n4C)C4(CCCC4)CN(C)C5=O)n3)nc2)CC1 [Example 74, 2′-(5-Fluoro-2-((5-(1-methylpiperidin-4-yl)pyridin-2-yl)amino)pyrimidin-4-yl)-1′,5′-dimethyl-5′,6′-dihydrospiro[cyclopentane-1,7′-pyrrolo[3,2-c]pyridin]-4′(1′H)-one] | ≤ 20 | 20 to 200 | 20 to 200 | –
CN1CCC(c2ccc(Nc3ncc(F)c(-c4cc5c(s4)C4(CCOCC4)CN(C)C5=O)n3)nc2)CC1 [Example 77, 2′-(5-Fluoro-2-((5-(1-methylpiperidin-4-yl)pyridin-2-yl)amino)pyrimidin-4-yl)-5′-methyl-2,3,5,5′,6,6′-hexahydro-4′H-spiro[pyran-4,7′-thieno[3,2-c]pyridin]-4′-one] | ≤ 20 | 20 to 200 | 20 to 200 | –
Cc1cnc(Nc2ccc(C3CCN(C)CC3)cn2)nc1-c1cc2c(s1)C1(CC1)N(C)C2=O [Example 80, 5′-Methyl-2′-(5-methyl-2-((5-(1-methylpiperidin-4-yl)pyridin-2-yl)amino)pyrimidin-4-yl)spiro[cyclopropane-1,6′-thieno[2,3-c]pyrrol]-4′(5′H)-one] | ≤ 20 | 20 to 200 | ≤ 20 | –
CCN1CC2(C1)CN(c1ccc(Nc3ncc(F)c(-c4cc5c(s4)C4(CCCC4)CN(C)C5=O)n3)nn1)C2 [Example 82, 2-[2-[[6-(6-Ethyl-2,6-diazaspiro[3.3]heptan-2-yl)pyridazin-3-yl]amino]-5-fluoropyrimidin-4-yl]-5-methylspiro[6H-thieno[3,2-c]pyridine-7,1′-cyclopentane]-4-one] | ≤ 20 | ≤ 20 | 20 to 200 | –
CCN1CCN(c2ccc(Nc3ncc(F)c(-c4cc5c(s4)C4(CCCC4)CN(C)C5=O)n3)nc2)C(=O)C1 [Example 86, 2-[2-[[5-(4-Ethyl-2-oxopiperazin-1-yl)pyridin-2-yl]amino]-5-fluoropyrimidin-4-yl]-5-methylspiro[6H-thieno[3,2-c]pyridine-7,1′-cyclopentane]-4-one] | ≤ 20 | 20 to 200 | 20 to 200 | –

Results, then the compound that gave them:

IC50 [1] [nM] | IC50 [2] [nM] | IC50 [3] [nM] | Kp at 4 h [4] | Structure (SMILES)
≤ 20 | ≤ 20 | 20 to 200 | 1 to 3 | CCN1CC2(C1)CN(c1ccc(Nc3ncc(F)c(-c4cc5c(s4)C4(CCCC4)CN(C)C5=O)n3)nc1)C2 [Example 1, 2′-(2-((5-(6-Ethyl-2,6-diazaspiro[3.3]heptan-2-yl)pyridin-2-yl)amino)-5-fluoropyrimidin-4-yl)-5′-methyl-5′,6′-dihydro-4′H-spiro[cyclopentane-1,7′-thieno[3,2-c]pyridin]-4′-one]
≤ 20 | ≤ 20 | 20 to 200 | 1 to 3 | CN1CCC(c2ccc(Nc3ncc(F)c(-c4cc5c(s4)C4(CCCC4)CN(C)C5=O)n3)nc2)CC1 [Example 2, 2′-(5-Fluoro-2-((5-(1-methylpiperidin-4-yl)pyridin-2-yl)amino)pyrimidin-4-yl)-5′-methyl-5′,6′-dihydro-4′H-spiro[cyclopentane-1,7′-thieno[3,2-c]pyridin]-4′-one]
≤ 20 | ≤ 20 | 20 to 200 | ≥ 3 | CCN1CCN(c2ccc(Nc3ncc(F)c(-c4cc5c(s4)C4(CCCC4)CN(C)C5=O)n3)nc2)CC1 [Example 3, 2′-(2-((5-(4-Ethylpiperazin-1-yl)pyridin-2-yl)amino)-5-fluoropyrimidin-4-yl)-5′-methyl-5′,6′-dihydro-4′H-spiro[cyclopentane-1,7′-thieno[3,2-c]pyridin]-4′-one]
≤ 20 | 20 to 200 | 20 to 200 | 1 to 3 | CCN1CC2(C1)CN(c1ccc(Nc3ncc(F)c(-c4cc5c(s4)C4(CCCCC4)CN(C)C5=O)n3)nc1)C2 [Example 4, 2′-(2-((5-(6-Ethyl-2,6-diazaspiro[3.3]heptan-2-yl)pyridin-2-yl)amino)-5-fluoropyrimidin-4-yl)-5′-methyl-5′,6′-dihydro-4′H-spiro[cyclohexane-1,7′-thieno[3,2-c]pyridin]-4′-one]
≤ 20 | ≤ 20 | 20 to 200 | 1 to 3 | Cc1c(-c2nc(Nc3ccc(C4CCN(C)CC4)cn3)ncc2F)sc2c1C(=O)N(C)C21CC1 [Example 6, 2′-(5-Fluoro-2-((5-(1-methylpiperidin-4-yl)pyridin-2-yl)amino)pyrimidin-4-yl)-3′,5′-dimethylspiro[cyclopropane-1,6′-thieno[2,3-c]pyrrol]-4′(5′H)-one]
≤ 20 | ≤ 20 | 20 to 200 | 1 to 3 | CCN1C(=O)c2c(sc(-c3nc(Nc4ccc(C5CCN(C)CC5)cn4)ncc3F)c2C)C12CC2 [Example 7, 5′-Ethyl-2′-(5-fluoro-2-((5-(1-methylpiperidin-4-yl)pyridin-2-yl)amino)pyrimidin-4-yl)-3′-methylspiro[cyclopropane-1,6′-thieno[2,3-c]pyrrol]-4′(5′H)-one]
≤ 20 | ≤ 20 | ≤ 20 | < 1 | CCN1CC2(C1)CN(c1ccc(Nc3ncc(F)c(-c4sc5c(c4C)C(=O)N(C)C54CC4)n3)nc1)C2 [Example 12, 2′-(2-((5-(6-Ethyl-2,6-diazaspiro[3.3]heptan-2-yl)pyridin-2-yl)amino)-5-fluoropyrimidin-4-yl)-3′,5′-dimethylspiro[cyclopropane-1,6′-thieno[2,3-c]pyrrol]-4′(5′H)-one]
≤ 20 | – | ≤ 20 | 1 to 3 | Cc1c(-c2nc(Nc3ccc(N4CC5(CCN(C)C5)C4)cn3)ncc2F)sc2c1C(=O)N(C)C21CC1 [Example 14, 2′-(5-Fluoro-2-((5-(6-methyl-2,6-diazaspiro[3.4]octan-2-yl)pyridin-2-yl)amino)pyrimidin-4-yl)-3′,5′-di methyl spiro[cyclopropane-1,6′-thieno[2,3-c]pyrrol]-4′(5′H)-one]

Source: patent US20250163074A1, “CDK Inhibitors And Their Use As Pharmaceuticals” (Prelude Therapeutics Incorporated, priority 2020, published 2025)
